Results reported in the NIST ThermoML archive (doi:10.1016/j.jct.2006.09.012).

Conditions: Liquid, Buoyancy - hydrostatic balance with magnetic suspension - two sinkers

CCOC(F)(C(F)(F)C(F)(F)C(F)(F)F)C(F)(C(F)(F)F)C(F)(F)F (stereo not drawn) [2-trifluoromethyl-3-ethoxydodecafluorohexane]
Conditions	mass density [kg/m3]
285 K, 1204.2 kPa	1650.59
285 K, 1204.8 kPa	1650.6
285 K, 1205.2 kPa	1650.59
285 K, 5212.8 kPa	1659.79
285 K, 5220.2 kPa	1659.81
285 K, 10181 kPa	1670.44
285 K, 10197 kPa	1670.47
308 K, 19845 kPa	1649.2
308.01 K, 1314.5 kPa	1604.24
308.01 K, 1320.9 kPa	1604.26
308.01 K, 1331 kPa	1604.29
308.01 K, 5215.7 kPa	1614.98
308.01 K, 5219.6 kPa	1614.99
308.01 K, 5223.4 kPa	1615
308.01 K, 10450 kPa	1628.17
308.01 K, 10468 kPa	1628.21
308.01 K, 10476 kPa	1628.24
308.01 K, 19786 kPa	1649.07
308.01 K, 19825 kPa	1649.16
350 K, 1285.8 kPa	1515.32
350 K, 1286 kPa	1515.32
350 K, 1286.3 kPa	1515.32
350 K, 1286.4 kPa	1515.32
350 K, 1286.7 kPa	1515.32
350 K, 1286.8 kPa	1515.32
350 K, 5286.1 kPa	1531.01
350 K, 5291 kPa	1531.03
350 K, 10388 kPa	1548.66
350 K, 10394 kPa	1548.69
350 K, 10401 kPa	1548.71
350 K, 16836 kPa	1568.2
350 K, 16850 kPa	1568.24
350 K, 17082 kPa	1568.89
350 K, 19716 kPa	1576.14
350 K, 19732 kPa	1576.18
350 K, 19786 kPa	1576.33
400 K, 1164.3 kPa	1398.22
400 K, 1164.4 kPa	1398.22
400 K, 1164.7 kPa	1398.23
400 K, 5225.5 kPa	1424.08
400 K, 5227.2 kPa	1424.09
400 K, 5228.8 kPa	1424.1
400 K, 9975.6 kPa	1448.91
400 K, 9979.7 kPa	1448.93
400 K, 9984.1 kPa	1448.95
400 K, 19197 kPa	1487.27
400 K, 19208 kPa	1487.3
400 K, 19218 kPa	1487.34
400 K, 19258 kPa	1487.49
400 K, 19276 kPa	1487.55
400 K, 19287 kPa	1487.59
400 K, 19317 kPa	1487.71
400 K, 19328 kPa	1487.74
400 K, 19347 kPa	1487.81
400 K, 19369 kPa	1487.89
400 K, 19380 kPa	1487.93
400 K, 19391 kPa	1487.97
400 K, 19416 kPa	1488.07
400 K, 19495 kPa	1488.35
400 K, 19519 kPa	1488.44
400 K, 19543 kPa	1488.53
400 K, 19560 kPa	1488.59
400 K, 19582 kPa	1488.67
